Each structure is given as a SMILES string.

Test [1] concerns WB-F344 rat liver epithelial cells. The test is described as follows: Gap junctional communication assay (Lucifer Yellow dye transfer). It is filed as cell-based. Particulars: for stimulation of GJIC, fold of control: 24 h of exposure. Here is the method:
WB-F344 rat liver epithelial cells (kindly provided by Dr. Trosko, East Lansing, Mich.) were grown in Dulbecco's modification of Eagle's Medium (DMEM) supplemented with 10% fetal calf serum (FCS), 2 mM L-glutamine and penicillin/streptomycin in 35 mm plastic dishes. Cells were incubated at 37° C. in a humidified atmosphere containing 5% CO2. The confluent cells were incubated with DMEM (without FCS) for 24 h to decrease the basal level of cell-cell communication. (−)-Epicatechin, genistein (Sigma) or TPA were dissolved in DMSO and added to the medium; controls received DMSO only. The final concentration of DMSO in the medium was 0.2%. The epicatechin dimer was prepared as described in Adamson et al. (“HPLC Method for the Quantification of Procyanidins in Cocoa and Chocolate Samples and Correlation to Total Antioxidant Capacity” J. Ag. Food Chem., Vol. 7:10, 4184-4188), the relevant portion of which is hereby incorporated herein by reference.
Cells were treated with (−)-epicatechin (4 to 40 μM) and genistein (40 μM) for 24 and 72 h and GJIC was determined. […] GJIC was measured by microinjection of the fluorescent dye Lucifer Yellow CH (10% in 0.33 M LiCl) into selected cells by means of a micromanipulator and a microinjector system (Eppendorf). One min after injection, the number of fluorescent cells around a single cell which was loaded with the dye were counted. Ten individual cells were injected per dish and means of the number of fluorescent neighboring cells were calculated. Images were taken with a Zeiss axiovert fluorescent microscope coupled to a CCD camera (ORCA II, Hamamatsu).

The test system of a further test is connexin43. Kind of test: Immunofluorescence analysis of the subcellular distribution of connexin43. It is filed as cell-based, rat. To be noted: 90 min. The method, then:
For immunohistochemistry, WB-F344 cells were grown in complete medium with FCS on coverslips in 35 mm plastic dishes until they reached 90% confluence. The cells were incubated for 90 min with 1, 5, or 10 nM TPA, 40 μM (−)-epicatechin or 40 μM genistein or a combination of 40 μM (−)-epicatechin and (1, 5, 10 nM) TPA or 40 μM genistein and (1, 5, 10 nM) TPA; DMSO (0.2%) was used as a control. After treatment, cells were washed with PBS and fixed with methanol for 10 min at −20° C. After further washing with PBS, non-specific binding sites were blocked with 3% normal goat serum (NGS) in PBS containing 0.3% (v/v) Triton-X-100 for 45 min at room temperature. Cells were incubated with a polyclonal anti-Cx 43 antibody (Zymed); diluted 1:1500 in PBS with 1% (v/v) NGS overnight at 4° C. Cells were washed with PBS, and incubated with an Alexa 546-coupled goat anti-rabbit Ig G (H+L) secondary antibody (Molecular Probes; diluted to 1:800 in PBS) for 45 min at 37° C. After washing and embedding, images were taken with a Zeiss axiovert fluorescent microscope coupled to a CCD camera (ORCA II, Hamamatsu).

Test [2] concerns cultured human umbilical vein endothelial cells. Particulars: cited from earlier work.
[3] abbreviates: Rattus norvegicus, WB-F344, 40 μM, 72 h, read-out: GJIC % of Control.

On to `Oc1cc(O)c2c(c1)O[C@H](c1ccc(O)c(O)c1)[C@H](O)C2` [(−)-Epicatechin], for which the “communication, fold above solvent control” value in test [1] (4 μM (lowest concentration)) was 1.6 fold. Moreover, the “Number of communicating cells” value in test [1] (4 μM, 72 h) turned out to be 18.1 ± 2.2 cells; in test [1] (10 μM, 72 h), 20.1 ± 6.8 cells; in test [1] (40 μM, 72 h), 24.2 ± 3.1 cells. Besides, the “GJIC (% control)” value stood at 95 ± 14 % control in test [1] (40 μM plus TPA 0.1 nM, 90 min); 95 ± 19 % control in test [1] (40 μM plus TPA 1 nM, 90 min); 61 ± 15 % control in test [1] (40 μM plus TPA 5 nM, 90 min); 50 ± 16 % control in test [1] (40 μM plus TPA 10 nM, 90 min). In addition, the “stimulation of GJIC, fold of control” value in test [1] (40 μM) is 1.5 fold. In test [1] (40 μM, 72 h incubation), the “increase of GJIC, fold above controls” value is reported as 2.1 fold. Besides, the activity at 4 µM in test [1] (Rattus norvegicus, WB-F344, 4 μM, 72 h, read-out: GJIC % of Control) is 156 ± 18%. The activity at 10 µM in test [1] (Rattus norvegicus, WB-F344, 10 μM, 72 h, read-out: GJIC % of Control) was 173 ± 56%. Besides, in test [1] (setting [3]), the activity at 40 µM was found to be 209 ± 26%.
Turning to `O=c1c(-c2ccc(O)cc2)coc2cc(O)cc(O)c12` [Genistein, genistein], the “TPA effect on Cx43 distribution” value in the test on connexin43 (40 μM plus TPA 10 nM) was “attenuated”. For the same compound, the “counteraction of complete loss of GJIC by TPA” value in test [1] (40 μM coincubated with TPA 5 and 10 nM, 90 min) was “partially counteracted”. For the same compound, the “GJIC (% control)” value stood at 90 ± 23 % control in test [1] (40 μM plus TPA 1 nM, 90 min); 83 ± 18 % control in test [1] (40 μM plus TPA 5 nM, 90 min); 72 ± 17 % control in test [1] (40 μM plus TPA 10 nM, 90 min). In addition, in test [1] (40 μM with 1 nM TPA, 90 min), the “GJIC when applied together with TPA” value was “restored GJIC to basal levels”. Also, the “stimulation of GJIC, fold of control” value in test [1] (40 μM) was 2.1 fold. Moreover, the “Number of communicating cells” value in test [1] (40 μM, 72 h) worked out at 35.4 ± 2.4 cells. In test [1] (40 μM, 72 h incubation), the “increase of GJIC, fold above controls” value came out at 2.9 fold. Besides, in test [1] (setting [3]), the activity at 40 µM is 293 ± 20%. Moreover, in test [2], the “levels that affect GJIC in cell culture” value is on record as “above 10 μM”.
On to `CCCCCCCCCCCCCC(=O)O[C@@H]1[C@@H](C)[C@@]2(O)[C@@H](C=C(CO)C[C@]3(O)C(=O)C(C)=C[C@@H]23)[C@H]2C(C)(C)[C@]12OC(C)=O` [TPA], for which the “signal of membrane-associated Cx43” value in the test on connexin43 (TPA 10 nM) is listed as “decreased dramatically”. For the same compound, the “effect on GJIC” value in test [1] (0.1 nM TPA, 90 min) is “No effect”; in test [1] (TPA, 72 h incubation) it was “no effect”. The “GJIC diminished by” value in test [1] (1 nM TPA, 90 min) was “about 40%”. In addition, the “GJIC (% control)” value in test [1] (TPA 0.1 nM alone, 90 min) came to 94 ± 14 % control; in test [1] (TPA 1 nM alone, 90 min), 55 ± 19 % control; in test [1] (TPA 5 nM alone, 90 min) it was 0 % control; in test [1] (TPA 10 nM alone, 90 min), 0 % control. Further, in test [1] (TPA alone 5 and 10 nM, 90 min), the intercellular communication result is “completely disrupted”.

The values are drawn from US8568805B2, “Cognitive function” (Mars, Inc., priority 2002, dated 2013).
